Experimental data reported in patent publication US20210198277A1, “AMINE-SUBSTITUTED ARYL OR HETEROARYL COMPOUNDS” (Epizyme, Inc., priority 2016, published 2021).

Each compound was assayed against T1, EHMT2 (Homo sapiens, UniProt Q96KQ7) (assay: MDA-MB-231 H3K9me2 in-cell Western assay (EHMT2 ICW)). Settings: Table III; MDA-MB-231 H3K9me2 in-cell Western; read-out: EHMT2 ICW (IC50 μM).
T1 construct: host or cells: MDA-MB-231
T1 sequence (Q96KQ7 1-1210): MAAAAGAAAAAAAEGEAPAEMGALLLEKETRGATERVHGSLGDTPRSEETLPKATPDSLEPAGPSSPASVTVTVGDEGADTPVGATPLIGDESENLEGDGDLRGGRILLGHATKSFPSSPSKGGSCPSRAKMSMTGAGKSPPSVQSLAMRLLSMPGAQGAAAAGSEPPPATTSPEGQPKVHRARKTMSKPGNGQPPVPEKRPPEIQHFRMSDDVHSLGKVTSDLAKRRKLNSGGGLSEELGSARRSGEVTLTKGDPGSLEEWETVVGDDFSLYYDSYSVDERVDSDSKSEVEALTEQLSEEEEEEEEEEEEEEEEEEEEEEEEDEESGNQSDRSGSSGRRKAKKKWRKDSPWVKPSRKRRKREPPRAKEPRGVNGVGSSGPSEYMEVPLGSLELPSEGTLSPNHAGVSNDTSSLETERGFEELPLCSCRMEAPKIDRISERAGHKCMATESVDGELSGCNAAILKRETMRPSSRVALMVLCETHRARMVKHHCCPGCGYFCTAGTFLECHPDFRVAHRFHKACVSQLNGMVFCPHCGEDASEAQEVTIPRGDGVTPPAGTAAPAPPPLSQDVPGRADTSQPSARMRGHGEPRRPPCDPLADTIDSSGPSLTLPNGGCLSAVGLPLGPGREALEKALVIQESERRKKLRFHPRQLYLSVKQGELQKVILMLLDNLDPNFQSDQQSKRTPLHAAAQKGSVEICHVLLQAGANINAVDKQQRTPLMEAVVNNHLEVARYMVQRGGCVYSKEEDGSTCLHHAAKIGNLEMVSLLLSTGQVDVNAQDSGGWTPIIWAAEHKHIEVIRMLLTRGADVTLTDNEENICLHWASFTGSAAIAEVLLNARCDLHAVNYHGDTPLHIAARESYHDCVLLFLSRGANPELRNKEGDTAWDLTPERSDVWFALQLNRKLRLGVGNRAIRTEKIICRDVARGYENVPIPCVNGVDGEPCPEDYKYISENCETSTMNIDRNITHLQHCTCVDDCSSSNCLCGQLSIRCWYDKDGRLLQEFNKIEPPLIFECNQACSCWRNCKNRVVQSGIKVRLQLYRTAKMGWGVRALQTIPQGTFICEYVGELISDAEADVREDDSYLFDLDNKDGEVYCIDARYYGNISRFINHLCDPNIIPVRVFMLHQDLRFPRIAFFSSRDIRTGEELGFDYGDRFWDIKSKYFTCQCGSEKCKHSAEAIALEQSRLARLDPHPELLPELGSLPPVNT
Assay type: cell-based
Method in brief: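 Cellular dimethyl-H3K9 is quantified by in-cell Western in MDA-MB-231 cells treated with compound for 48 h. The H3K9me2 signal at 800 nm is normalised to DRAQ5 nuclear stain at 700 nm. IC50 is calculated from triplicate concentration points by nonlinear regression.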

| SMILES | IC50 |
| --- | --- |
| CNc1cc(C)nc(Nc2cc(F)c(OC)c(OCCCN3CCCC3)c2)n1 [Compound 301, N2-(3-fluoro-4-methoxy-5-(3-(pyrrolidin-1-yl)propoxy)phenyl)-N4,6-dimethylpyrimidine-2,4-diamine] | > 10 µM |
| CNc1cc(C)nc(Nc2ccc(OC)c(OCC3CCN(CC4CC4)CC3)c2)n1 [Compound 436, N^2-(3-((1-(cyclopropylmethyl)piperidin-4-yl)methoxy)-4-methoxyphenyl)-N^4,6-dimethylpyrimidine-2,4-diamine] | > 10 µM |
| CNc1cc(Nc2cc(OCCCN3CCCC3)c(OC)cn2)nc(C)c1F [Compound 309, 5-fluoro-N^2-(5-methoxy-4-(3-(pyrrolidin-1-yl)propoxy)pyridin-2-yl)-N^4,6-dimethylpyridine-2,4-diamine] | 0.1 to 1 µM |
| CNc1ccnc(Nc2ccc(OC)c(OC[C@H](O)CN3CCCC3)c2)n1 [Compound 299, (R)-1-(2-methoxy-5-((4-(methylamino)pyrimidin-2-yl)amino)phenoxy)-3-(pyrrolidin-1-yl)propan-2-ol] | 0.1 to 1 µM |
| CNc1cc(COC)nc(Nc2ccc(OC)c(OCCCN3CCCC3)c2)n1 [Compound 441, N^2-(4-methoxy-3-(3-(pyrrolidin-1-yl)propoxy)phenyl)-6-(methoxymethyl)-N^4-methylpyrimidine-2,4-diamine] | 1 to 10 µM |
| CNc1ccnc(Nc2ccc(OC)c(OCc3cn(C4CC4)nn3)c2)n1 [Compound 434, N^2-(3-((1-cyclopropyl-1H-1,2,3-triazol-4-yl)methoxy)-4-methoxyphenyl)-N^4-methylpyrimidine-2,4-diamine] | > 10 µM |
| CNc1cc(C)nc(Nc2ccc(OC)c(OCC3CN(CC4CC4)C3)c2)n1 [Compound 445, N^2-(3-((1-(cyclopropylmethyl)azetidin-3-yl)methoxy)-4-methoxyphenyl)-N^4,6-dimethylpyrimidine-2,4-diamine] | 1 to 10 µM |
| CNc1cc(CC(F)(F)F)nc(Nc2ccc(OC)c(OCCCN3CCCC3)c2)n1 [Compound 428, N^2-(4-methoxy-3-(3-(pyrrolidin-1-yl)propoxy)phenyl)-N^4-methyl-6-(2,2,2-trifluoroethyl)pyrimidine-2,4-diamine] | 1 to 10 µM |
| CNc1ccnc(Nc2cc(OCCCN3CCCC3)c(OC)cn2)c1 [Compound 305, N^2-(5-methoxy-4-(3-(pyrrolidin-1-yl)propoxy)pyridin-2-yl)-N^4-methylpyridine-2,4-diamine] | 0.1 to 1 µM |
| CCN1CC(COc2cc(Nc3nc(C)cc(NC)n3)ccc2OC)C1 [Compound 444] | 0.1 to 1 µM |
| CNc1ccnc(Nc2cccc3oc(CCN(C)C)nc23)n1 [Compound 295] | > 10 µM |
| CNc1ccnc(Nc2cccc(N3CC(N)CC3=O)c2)n1 (centres unmarked) [Compound 296] | > 10 µM |
| CNc1cc(C)nc(Nc2ccc(OC)c(OCC3CN(C)C3)c2)n1 [Compound 442, N^2-(4-methoxy-3-((1-methylazetidin-3-yl)methoxy)phenyl)-N^4,6-dimethylpyrimidine-2,4-diamine] | 0.1 to 1 µM |
| COc1ccc(Nc2cc(C)nc(O)n2)cc1OCCCN1CCCC1 [Compound 448, 4-((4-methoxy-3-(3-(pyrrolidin-1-yl)propoxy)phenyl)amino)-6-methylpyrimidin-2-ol] | > 10 µM |
| CNc1nc(C)cc(Nc2cc(OCCCN3CCCC3)c(OC)cn2)n1 [Compound 306, N^4-(5-methoxy-4-(3-(pyrrolidin-1-yl)propoxy)pyridin-2-yl)-N^2,6-dimethylpyrimidine-2,4-diamine] | > 10 µM |

Second part, the compound after the results:

| IC50 | SMILES |
| --- | --- |
| > 10 µM | CCOc1ccc(Nc2nccc(NC)n2)cc1OCCCN1CCCC1 [Compound 430, N^2-(4-ethoxy-3-(3-(pyrrolidin-1-yl)propoxy)phenyl)-N^4-methylpyrimidine-2,4-diamine] |
| 1 to 10 µM | CNc1ccnc(Nc2ccc(OC)c(OCCCN3CCC(C)C3)c2)n1 (centres unmarked) [Compound 293, N^2-(4-methoxy-3-(3-(3-methylpyrrolidin-1-yl)propoxy)phenyl)-N^4-methylpyrimidine-2,4-diamine] |
| 1 to 10 µM | CNc1ccnc(Nc2ccc(OC)c(OCCCN3CC(OC)C3)c2)n1 [Compound 425, N^2-(4-methoxy-3-(3-(3-methoxyazetidin-1-yl)propoxy)phenyl)-N^4-methylpyrimidine-2,4-diamine] |
| > 10 µM | CNc1ccnc(Nc2cccc(N3CCC(N)C3=O)c2)n1 (centres unmarked) [Compound 274] |
| 0.1 to 1 µM | CNc1ccnc(Nc2ccc(OC)c(OCCCN3CCC(O)C3)c2)n1 (centres unmarked) [Compound 286, 1-(3-(2-methoxy-5-((4-(methylamino)pyrimidin-2-yl)amino)phenoxy)propyl)pyrrolidin-3-ol] |
| > 10 µM | CNc1ccnc(Nc2cccc(OCC(F)CN3CCCC3)c2)n1 (centres unmarked) [Compound 276, N^2-(3-(2-fluoro-3-(pyrrolidin-1-yl)propoxy)phenyl)-N^4-methylpyrimidine-2,4-diamine] |
| 1 to 10 µM | CNc1cc(Nc2cc(OCCCN3CCCC3)c(OC)cn2)cc(C)n1 [Compound 308, N^4-(5-methoxy-4-(3-(pyrrolidin-1-yl)propoxy)pyridin-2-yl)-N^2,6-dimethylpyridine-2,4-diamine] |
| > 10 µM | CNc1ccnc(Nc2cccc(N3CCC(N(C)C)C3=O)c2)n1 (centres unmarked) [Compound 275] |
| > 10 µM | CCOc1ccc(Nc2nc(C)cc(NC)n2)cc1OCCCN1CCCC1 [Compound 432, N^2-(4-ethoxy-3-(3-(pyrrolidin-1-yl)propoxy)phenyl)-N^4,6-dimethylpyrimidine-2,4-diamine] |
| > 10 µM | CNc1ccnc(Nc2ccc(OC)c(OCCCN3CC[C@H](F)C3)c2)n1 [Compound 271] |
| > 10 µM | CCOc1ccc(Nc2nccc(NC)n2)cc1OCC1CCN(C)C1 (centres unmarked) [Compound 431] |
